# Laboratory results published in article PMC9821843, “Powerful Potential of Polyfluoroalkyl-Containing 4-Arylhydrazinylidenepyrazol-3-ones for Pharmaceuticals” (Molecules, 2022).
# Key:
# [1] = target: T1, human erythrocyte acetylcholinesterase (AChE, EC 3.1.1.7) (Homo sapiens, UniProt P22303); assay: Inhibition of human erythrocyte acetylcholinesterase (Ellman assay); type: biochemical; conditions: read-out: Inhibition % at 20 µM, Human AChE
# T1 construct: human erythrocyte acetylcholinesterase (AChE, EC 3.1.1.7); purchased Sigma-Aldrich (Saint Louis, MO, USA); host or cells: human erythrocytes
# T1 sequence (P22303 32-617 isoform P22303-2 limits assumed): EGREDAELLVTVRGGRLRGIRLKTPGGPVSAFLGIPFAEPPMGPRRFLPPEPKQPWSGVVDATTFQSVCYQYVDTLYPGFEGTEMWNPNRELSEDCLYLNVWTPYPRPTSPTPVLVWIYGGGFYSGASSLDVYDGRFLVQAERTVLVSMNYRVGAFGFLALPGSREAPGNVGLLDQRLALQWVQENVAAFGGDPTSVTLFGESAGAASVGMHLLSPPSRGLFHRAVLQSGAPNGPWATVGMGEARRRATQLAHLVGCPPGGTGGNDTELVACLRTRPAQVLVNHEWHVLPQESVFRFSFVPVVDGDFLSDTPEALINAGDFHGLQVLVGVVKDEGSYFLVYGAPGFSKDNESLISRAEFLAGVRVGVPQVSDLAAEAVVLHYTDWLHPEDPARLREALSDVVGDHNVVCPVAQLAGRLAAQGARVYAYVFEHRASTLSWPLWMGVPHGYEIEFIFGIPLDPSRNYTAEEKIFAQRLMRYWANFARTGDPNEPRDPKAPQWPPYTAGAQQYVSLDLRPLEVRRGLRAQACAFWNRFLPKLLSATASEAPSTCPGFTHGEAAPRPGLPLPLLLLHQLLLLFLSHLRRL
# Summary of the method: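 Colorimetric Ellman read-out with acetylthiocholine iodide substrate and DTNB, under standard reversible-inhibitor conditions, 2% (v/v) final DMSO. Enzyme-free blanks corrected for non-enzymatic hydrolysis; triplicate runs, IC50 from regression plots.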
# [2] = target: T2, equine serum butyrylcholinesterase (BChE, EC 3.1.1.8) (Equus caballus, UniProt P81908); assay: Inhibition of equine serum butyrylcholinesterase (Ellman assay); type: biochemical; conditions: read-out: Inhibition % at 20 µM, Equine BChE
# T2 construct: equine serum butyrylcholinesterase (BChE, EC 3.1.1.8); purchased Sigma-Aldrich (Saint Louis, MO, USA); host or cells: equine serum
# T2 sequence (P81908 whole entry): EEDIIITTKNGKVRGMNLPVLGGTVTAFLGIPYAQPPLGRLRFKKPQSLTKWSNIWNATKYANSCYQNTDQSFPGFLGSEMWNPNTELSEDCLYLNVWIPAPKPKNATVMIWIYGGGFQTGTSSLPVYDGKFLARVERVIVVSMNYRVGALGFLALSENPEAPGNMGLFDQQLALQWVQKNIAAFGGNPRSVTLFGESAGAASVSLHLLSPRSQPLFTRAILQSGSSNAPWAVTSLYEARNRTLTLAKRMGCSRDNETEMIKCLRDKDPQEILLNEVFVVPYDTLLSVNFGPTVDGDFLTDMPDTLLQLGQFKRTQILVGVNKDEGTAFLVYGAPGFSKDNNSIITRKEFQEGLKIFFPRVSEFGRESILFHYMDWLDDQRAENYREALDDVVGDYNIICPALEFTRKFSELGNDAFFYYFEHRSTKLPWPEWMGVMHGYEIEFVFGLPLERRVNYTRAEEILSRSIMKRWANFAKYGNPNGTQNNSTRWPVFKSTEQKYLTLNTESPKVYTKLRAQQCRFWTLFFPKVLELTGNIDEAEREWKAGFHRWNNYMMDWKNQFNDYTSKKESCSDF
# Summary of the method: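 Ellman colorimetric assay with 0.02 unit/mL BChE, 1 mM butyrylthiocholine iodide and 0.33 mM DTNB, 2% (v/v) DMSO final; substrate added after enzyme-compound mixing. Residual activity versus inhibitor-free control, blanks without enzyme; triplicates, IC50 by linear regression.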
# [3] = Oxygen radical absorbance capacity (ORAC-FL) assay; conditions: n.a. = inactive; i.t.s. = interferes with test system
# Summary of the method: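 Fluorescein oxidative degradation by the peroxyl radical generator AAPH is monitored in the presence of test compound, a HAT-based read-out. Activity is expressed relative to Trolox as reference antioxidant.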
# [4] = target: porcine liver carboxylesterase (CES, EC 3.1.1.1) (Sus scrofa, UniProt Q29550); assay: Inhibition of porcine liver carboxylesterase (4-NPA colorimetric assay); type: biochemical; conditions: 20 µM; n.a. = inactive at 20 µM; mean ± SEM, n = 3
# porcine liver carboxylesterase (CES, EC 3.1.1.1), sequence (Q29550 19-566): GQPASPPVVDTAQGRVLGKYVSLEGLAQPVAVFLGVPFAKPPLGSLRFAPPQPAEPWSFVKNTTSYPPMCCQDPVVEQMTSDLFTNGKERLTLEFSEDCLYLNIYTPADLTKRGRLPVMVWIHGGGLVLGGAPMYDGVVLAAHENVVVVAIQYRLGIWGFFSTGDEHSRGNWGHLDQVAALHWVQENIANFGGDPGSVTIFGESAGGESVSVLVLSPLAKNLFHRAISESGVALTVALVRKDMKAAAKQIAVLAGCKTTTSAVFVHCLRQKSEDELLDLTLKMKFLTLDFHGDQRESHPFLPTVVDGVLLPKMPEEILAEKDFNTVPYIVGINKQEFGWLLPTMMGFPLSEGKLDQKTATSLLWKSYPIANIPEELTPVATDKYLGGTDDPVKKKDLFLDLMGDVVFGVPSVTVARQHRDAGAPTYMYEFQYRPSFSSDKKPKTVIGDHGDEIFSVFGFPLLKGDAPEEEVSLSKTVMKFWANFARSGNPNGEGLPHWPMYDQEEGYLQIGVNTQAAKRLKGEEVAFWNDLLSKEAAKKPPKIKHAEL
# From the text: The following enzymes were purchased from Sigma-Aldrich (Saint Louis, MO, USA): porcine liver carboxylesterase (CES, EC 3.1.1.1), human erythrocyte acetylcholinesterase (AChE, EC 3.1.1.7) and equine serum butyrylcholinesterase (BChE, EC 3.1.1.8). Substrates for CES, AChE and BChE were 4-nitrophenyl acetate (4-NPA), acetylthiocholine iodide (ATCh) and butyrylthiocholine iodide (BTCh), respectively, and the colorimetric reagent for the AChE and BChE assays was 5,5’-dithio-bis-(2-nitrobenzoic acid) (DTNB) (Sigma-Aldrich). All the kinetic experiments were performed under standard conditions, according to the protocol of IPAC RAS for a reversible inhibitors study.
# The CES (porcine liver) activity was assessed colorimetrically in 0.1 M K/Na phosphate buffer pH 8.0, 25 °C, by measuring the absorbance of 4-nitrophenol at 405 nm. Final enzyme and substrate (4-NPA) concentrations were 0.02 unit/mL and 1 mM, respectively. Reagent blanks included all constituents except enzyme.
# Test compounds were dissolved in DMSO. Reaction mixtures contained a final DMSO concentration of 2% (v/v). Enzyme inhibition was first assessed at a single concentration of 20 µM for each compound after a 5 min incubation at 25 °C in three separate experiments. […] Substrate was then added and residual enzyme activity relative to an inhibitor-free control was measured using a Bio-Rad Benchmark Plus microplate reader (Marnes-la-Coquette, France).
# Measurements were performed in a Bio-Rad Benchmark Plus microplate reader. Each experiment was performed in triplicate. Plots, linear regressions and values of IC50, were determined using Origin 6.1 for Windows, OriginLab (Northampton, MA, USA). Results were calculated using GraphPad Prism version 6.05 for Windows, GraphPad Software (La Jolla, CA, USA) and presented as mean ± SEM.
# [5] = system: HeLa tumor cell line; assay: Cytotoxicity against HeLa cells (MTT assay); type: cell-based, human; conditions: for IC50: Homo sapiens, HeLa, 72 h, MTT, n.a. = inactive, read-out: IC50, HeLa; for Selectivity Index (SI): ratio of average IC50 in normal fibroblasts to average IC50 for HeLa
# Experimental: Cytotoxicity of compounds was evaluated using a culture of human dermal fibroblasts, which were isolated in the Laboratory of Cell Cultures of the Institute of Medical Cell Technologies, Ekaterinburg, Russia and a HeLa tumor cell line obtained at the shared research facility «Vertebrate cell culture collection» of the Institute of Cytology of the Russian Academy of Sciences, St. Petersburg, Russia. Cells were seeded in 96-well plates in the inoculum dose of 2 × 10^5 cells/mL and cultured for 24 h in DMEM, with 1% glutamine in the presence of 10% fetal bovine serum and gentamicin (50 mg/L) at 37 °C, with humidified atmosphere of 5% CO2. Then compounds, which were dissolved in DMSO, were added to the wells at the final concentrations of 10^–7, 10^–6, 10^–5 and 10^–4 M. The cells were incubated with compounds for 72 h, after which cell viability was assessed using the standard MTT assay. The assay was carried out in four replicates with negative (culture medium), positive (solution of the cytotoxic drug camptothecin at a concentration of 3 mM) controls and the solvent control (DMSO). The results of the MTT assay were evaluated on a Tecan Infinite M200 PRO (Tecan Austria GmbH, Grödig, Austria) plate spectrophotometer by comparing the optical density of a formazan solution at 570 nm in the assay and control wells. The half maximal inhibitory concentrations (IC50) were calculated by AAT Bioquest-calculator (https://www.aatbio.com/tools/ic50-calculator (accessed on 14 November 2022)).
# [6] = system: Trichophyton rubrum RCPF F 1408; assay: Antifungal susceptibility testing, T. rubrum; conditions: for MIC: Trichophyton rubrum, RCPFF1408, read-out: MIC for fungi strains inhibition, T. rubrum
# From the text: The solvent was DMSO. […] In each test, a growth control and a sterility control were used.
Compound,inhibition at 20 µM [1],inhibition at 20 µM [2],"ORAC-FL (TE, antioxidant activity in Trolox equivalents) [3]",inhibition at 20 µM [4],IC50 [5],Selectivity Index (SI) [5],MIC [6],"MIC for fungi strains inhibition, T. rubrum [6]"
"O=C1NN=C(C(F)(F)F)/C1=N/Nc1ccccc1 [5a, (Z)-4-(2-Phenylhydrazinylidene)-5-(trifluoromethyl)-2,4-dihydro-3H-pyrazol-3-one]",12.8 ± 2.3%,10.7 ± 1.8%,2.30 ± 0.20,,,,,
"Cc1ccc(N/N=C2\C(=O)NN=C2C(F)(F)F)cc1 [5b, (4Z)-4-[2-(4-Methylphenyl)hydrazinylidene]-5-(trifluoromethyl)-2,4-dihydro-3H-pyrazol-3-one]",,,2.37 ± 0.32,10.1 ± 1.7%,2.26 ± 0.14 µM,3.62,50 µg/mL,
"O=C1NN=C(C(F)(F)F)/C1=N/Nc1ccc(Br)cc1 [5c, (4Z)-4-[2-(4-Bromophenyl)hydrazinylidene]-5-(trifluoromethyl)-2,4-dihydro-3H-pyrazol-3-one]",3.4 ± 0.6%,5.9 ± 1%,1.73 ± 0.21,5.5 ± 0.9%,,,12.5 µg/mL,12.5 µg/mL
"Cc1ccc(N/N=C2\C(=O)N(C)N=C2C(F)(F)F)cc1 [5d, (4Z)-2-Methyl-4-[2-(4-methylphenyl)hydrazinylidene]-5-(trifluoromethyl)-2,4-dihydro-3H-pyrazol-3-one]",4.5 ± 1.1%,,1.27 ± 0.15,,,,200 µg/mL,
"Cc1ccc(N/N=C2\C(=O)N(c3ccccc3)N=C2C(F)(F)F)cc1 [5f, (4Z)-4-[2-(4-Methylphenyl)hydrazinylidene]-2-phenyl-5-(trifluoromethyl)-2,4-dihydro-3H-pyrazol-3-one]",,,i.t.s.,,4.49 ± 0.18 µM,4.56,> 200 µg/mL,
"CS(=O)(=O)c1ccc(N/N=C2\C(=O)N(c3ccccc3)N=C2C(F)(F)F)cc1 [5m, (4Z)-4-(2-[4-(Methylsulfonyl)phenyl]hydrazinylidene)-2-phenyl-5-(trifluoromethyl)-2,4-dihydro-3H-pyrazol-3-one]",5.5 ± 0.5%,4 ± 1%,i.t.s.,20.4 ± 1.6%,,,100 µg/mL,
"Cc1ccc(N/N=C2\C(=O)N(c3ccc(S(N)(=O)=O)cc3)N=C2C(F)(F)F)cc1 [5p, (4Z)-2-[4-(Aminosulfonyl)phenyl]-4-[2-(4-methylphenyl)hydrazinylidene]-5-(trifluoromethyl)-2,4-dihydro-3H-pyrazol-3-one]",,3.6 ± 0.9%,i.t.s.,5.7 ± 1%,,,> 200 µg/mL,
"Cc1ccc(N/N=C2\C(=O)NN=C2C(F)(F)C(F)(F)F)cc1 [6a, (4Z)-4-[2-(4-Methylphenyl)hydrazinylidene]-5-(pentafluoroethyl)-2,4-dihydro-3H-pyrazol-3-one]",,3.3 ± 0.9%,2.67 ± 0.29,7.8 ± 1.4%,1.47 ± 0.13 µM,8.83,,
"Cc1ccc(N/N=C2\C(=O)N(c3ccccc3)N=C2C(F)(F)C(F)(F)F)cc1 [6b, (4Z)-4-[2-(4-Methylphenyl)hydrazinylidene]-5-(pentafluoroethyl)-2-phenyl-2,4-dihydro-3H-pyrazol-3-one]",8.3 ± 1.4%,5.7 ± 1.3%,,,65.9 ± 5.22 µM,1.49,,
"Cc1ccc(N/N=C2\C(=O)NN=C2C(F)(F)C(F)(F)C(F)(F)F)cc1 [7a, (4Z)-5-(Heptafluoropropyl)-4-[2-(4-methylphenyl)hydrazinylidene]-2,4-dihydro-3H-pyrazol-3-one]",35.6 ± 0.8%,10.5 ± 1.1%,2.80 ± 0.01,9.9 ± 0.7%,,,> 200 µg/mL,
"Cc1ccc(N/N=C2\C(=O)N(c3ccccc3)N=C2C(F)(F)C(F)(F)C(F)(F)F)cc1 [7b, (4Z)-5-(Heptafluoropropyl)-4-[2-(4-methylphenyl)hydrazinylidene]-2-phenyl-2,4-dihydro-3H-pyrazol-3-one]",12.6 ± 1.8%,4.5 ± 1.2%,,,59.7 ± 6.34 µM,1.24,,
"CC1=NNC(=O)/C1=N\Nc1ccc(C)cc1 [9a, (4Z)-5-Methyl-4-[2-(4-methylphenyl)hydrazinylidene]-2,4-dihydro-3H-pyrazol-3-one]",,4.3 ± 1%,3.23 ± 0.50,,3.16 ± 0.25 µM,7.68,,
"CC1=NN(c2ccccc2)C(=O)/C1=N\Nc1ccc(C)cc1 [9b, (4Z)-5-Methyl-4-[2-(4-methylphenyl)hydrazinylidene]-2-phenyl-2,4-dihydro-3H-pyrazol-3-one]",,,2.67 ± 0.58,10.3 ± 2.4%,46.5 ± 1.98 µM,0.52,> 200 µg/mL,
